The values below come from patent US20240382465A1, “AROMATIC ACETYLENE DERIVATIVE, AND PREPARATION METHOD THEREFOR AND USE THEREOF” (priority 2021, published 2024).

In brackets after ≈: the same amount, converted by molar mass.

As a reminder, the IC50 is the concentration at which inhibition is half-maximal. Usually MIC stands for the lowest concentration that inhibits growth of the organism.

For one assay, the target named is recombinant Pseudomonas aeruginosa LpxC (Pseudomonas aeruginosa (strain ATCC 15692 / DSM 22644 / CIP 104116 / JCM 14847 / LMG 12228 / 1C / PRS 101 / PAO1), UniProt P47205). The assay is described as follows: Inhibition of LpxC enzymatic activity (fluorescamine assay). In kind it is biochemical. The following applies: recombinant P. aeruginosa LpxC 5 nM, substrate 10 μM, 25° C., 120 minutes; read-out: IC50. As for the experimental part:
The degree of inhibition of the enzymatic activity of recombinant Pseudomonas aeruginosa LpxC by the compounds of the present disclosure under in vitro conditions was determined using the following method.
The experimental procedure is briefly described as follows: The test compound was first dissolved in DMSO to prepare a 10 mM stock solution. The reaction was carried out in a 96-well microplate. First, 20 μL of recombinant Pseudomonas aeruginosa LpxC (purchased from Signalway Antibody, product number AP74647-2) was added to each well, with a final concentration of 5 nM. 5 μL of the compound to be tested was then added, and the compound was diluted 4 times to 8 concentration points with a concentration range of 0.61-10,000 nM. 5 μL of LpxC substrate UDP-3-O—(R-3-hydroxydecanoyl)-GlcNAc (purchased from Biosynth Carbosynth, product number: mu75071) was added, with a final concentration of the substrate of 10 μM. The plate was incubated at 25° C. for 120 minutes. Then 20 μL of 2.0 mg/mL fluorescamine (purchased from sigmaaldrich, product number: F9015, solvent: 1:1 dimethylformamide/acetonitrile) was added to the reaction system, and mixed well for 10 minutes of reaction. Finally, 50 μL of 200 mM sodium phosphate buffer (pH 8.0) was added to terminate the reaction. Reading was carried out using a microplate reader (BMG), and the excitation and emission wavelengths were 390 and 495 nm respectively. By comparing with the fluorescence intensity ratio of the control group ([…]), the percentage inhibition rate of the compound at each concentration was calculated.
As for `C[C@H](O)c1nccn1Cc1cc(-c2ccc(C#Cc3ccc(N4CCOCC4)cc3)cc2)on1` [Example 5], the concentration for half-maximal inhibition (IC50) was 72.3 nM. The same measure, in the same setting: the result for `C[C@H](O)c1nccn1Cc1cc(-c2ccc(C#Cc3ccc(CN4CCOCC4C(=O)O)cc3)cc2)on1` (stereo partly drawn) [Example 20, 4-(4-((4-(3-((2-((S)-1-hydroxyethyl)-1H-imidazol-1-yl)methyl)isoxazol-5-yl)phenyl)ethynyl)benzyl)morpholin-3-carboxylic acid] reads 9.86 nM. Still for that read-out and setting: with `C[C@H](O)c1nccn1Cc1cc(-c2ccc(C#Cc3ccc(N4CCC(O)CC4)cc3)cc2)on1` [Example 41, (S)-1-(4-((4-(3-((2-(1-hydroxyethyl)-1H-imidazol-1-yl)methyl)isoxazol-5-yl)phenyl)ethynyl)phenyl)piperidin-4-ol] the figure was 26.3 nM; with `C[C@H](O)c1nccn1Cc1cc(-c2ccc(C#Cc3ccc(C(=O)N4CC(O)C4)cc3)cc2)on1` [Example 68, (S)-(3-hydroxyazetidin-1-yl)(4-((4-(3-((2-(1-hydroxyethyl)-1 H-imidazol-1-yl)methyl)isoxazol-5-yl)phenyl)ethynyl)phenyl)methanone], 68.3 nM; with `C[C@H](O)c1nccn1Cc1cc(-c2ccc(C#Cc3ccc(C(=O)NCC(=O)O)cc3)cc2)on1` [Example 74, (S)-(4-((4-(3-((2-(1-hydroxy-ethyl)-1H-imidazol-1-yl)methyl)isoxazol-5-yl)phenyl)ethynyl)benzoyl)glycinate], 21.2 nM. For `C[C@H](O)c1nccn1Cc1cc(-c2ccc(C#Cc3ccc(OC4CCC(C(=O)O)CC4)cc3)cc2)on1` (stereo partly drawn) [Example 79, (S)-4-(4-((4-(3-((2-(1-hydroxyethyl)-1H-imidazol-1-yl)methyl)isoxazol-5-yl)phenyl)ethynyl)phenoxy)cyclohexane-1-carboxylic acid], the IC50 came to 42.5 nM. Regarding `C[C@H](O)c1nccn1Cc1cc(-c2ccc(C#Cc3ccc(OCCN4CCOCC4)cc3)cc2)on1` [Example 80, (S)-1-(1-((5-(4-((4-(2-morpho-linoethoxy)phenyl)ethynyl)phenyl)isoxazol-3-yl)methyl)-1H-imidazol-2-yl)ethan-1-ol], the half-maximal inhibitory concentration (IC50) was 64.9 nM.

Take `C[C@H](O)c1nccn1Cc1cc(-c2ccc(C#Cc3ccc(S(N)(=O)=O)cc3)cc2)on1` [Example 83, (S)-4-((4-(3-((2-(1-hydroxy-ethyl)-1H-imidazol-1-yl)methyl)isoxazol-5-yl)phenyl)ethynyl) benzenesulfonamide]: the 50% inhibitory concentration (IC50) amounted to 54.7 nM. As for `C[C@H](O)c1nccn1Cc1cc(-c2ccc(C#Cc3ccc(C(C)(C)N4CCOCC4)cc3)cc2)on1` [Example 94, (S)-1-(1-((5-(4-((4-(2-morpho-linopropan-2-yl)phenyl)ethynyl)phenyl)isoxazol-3-yl)methyl)-1H-imidazol-2-yl)ethan-1-ol], the concentration for half-maximal inhibition (IC50) turned out to be 76.5 nM. The same measure, in the same setting: the result for `C[C@H](O)c1nccn1Cc1cc(-c2ccc(C#Cc3ccc(CN4CCC(O)C(F)(F)C4)cc3)cc2)on1` (stereo partly drawn) [Example 97, 3,3-difluoro-1-(4-((4-(3-((2-((S)-1-hydroxyethyl)-1H-imidazol-1-yl)methyl)isoxazol-5-yl)phenyl)ethynyl)benzyl) piperidin-4-ol] reads 31.9 nM.

With `C[C@H](O)c1nccn1Cc1cc(-c2ccc(C#Cc3ccc(Cn4ccnc4)cc3)cc2)on1` [Example 98, (S)-1-(1-((5-(4-((4-((1H-imida-zol-1-yl)methyl)phenyl)ethynyl)phenyl)isoxazol-3-yl)methyl)-1H-imidazol-2-yl)ethan-1-ol], the half-maximal inhibitory concentration (IC50) is 78.5 nM.

On to `CC(=O)c1ccc(C#Cc2ccc(-c3cc(Cn4ccnc4[C@H](C)O)no3)cc2)cn1` [Example 103, (S)-1-(5-((4-(3-((2-(1-hydroxyethyl)-1H-imidazol-1-yl)methyl)isoxazol-5-yl)phenyl)ethynyl)pyridin-2-yl)ethan-1-one], for which the IC50 worked out at 46.8 nM.

Regarding `C[C@H](O)c1nccn1Cc1cc(-c2ccc(C#Cc3ccc(CN4CCOCC4)cc3)cn2)no1` [Example 104, (S)-1-(1-((3-(5-((4-(morpholino-methyl)phenyl)ethynyl)pyridin-2-yl)isoxazol-5-yl)methyl)-1H-imidazol-2-yl)ethan-1-ol], the IC50 came to 58.6 nM. For the compound `C[C@H](O)c1nccn1Cc1cc(-c2ccc(C#Cc3ccc(C(=O)NCCO)nc3)cc2)on1` [Example 105, (S)-N-(2-hydroxyethyl)-5-((4-(3-((2-(1-hydroxyethyl)-1H-imidazol-1-yl)methyl)isoxazol-5-yl)phenyl)ethynyl) picolinamide], the half-inhibitory concentration (IC50) is 22.6 nM. Same read-out and setting: with `C[C@H](O)c1nccn1Cc1cc(-c2ccc(C#Cc3ccccc3C(=O)O)cc2)on1` [Example 106, (S)-2-((4-(3-((2-(1-hydroxyethyl)-1H-imidazol-1-yl)methyl)isoxazol-5-yl)phenyl)ethynyl) benzoic acid] the figure was 68.9 nM. With `C[C@H](O)c1nccn1Cc1cc(-c2ccc(C#Cc3ccc(CN4CC(CO)C4)nc3)cc2)on1` [Example 113, (S)-1-(1-((5-(4-((6-((3-(hydroxymethyl)azetidin-1-yl)methyl)pyridin-3-yl)ethynyl)phenyl)isoxazol-3-yl)methyl)-1H-imidazol-2-yl)ethan-1-ol], the IC50 amounted to 24.6 nM. Still for that read-out and setting: with `C[C@H](O)c1nccn1Cc1cc(-c2ccc(C#Cc3ccc(CNCC(=O)O)nc3)cc2)on1` [Example 116] the figure was 47.9 nM; with `C[C@H](O)c1nccn1Cc1cc(-c2ccc(C#Cc3ccc(CN4CC(C(=O)O)C4)nc3)cc2)on1` [Example 117, (S)-1-((5-((4-(3-((2-(1-hydroxyethyl)-1H-imidazol-1-yl)methyl)isoxazol-5-yl)phenyl)ethynyl)pyridin-2-yl)methyl)azetidin-3-carboxylic acid], 18.5 nM. For `C[C@H](O)c1nccn1Cc1cc(-c2ccc(C#Cc3ccc(CN4CC(CC#N)C4)nc3)cc2)on1` [Example 118, (S)-2-(1-((5-((4-(3-((2-(1-hydroxyethyl)-1H-imidazol-1-yl)methyl)isoxazol-5-yl)phenyl)ethynyl)pyridin-2-yl)methyl)azetidin-3-yl)acetonitrile], the IC50 turned out to be 16.5 nM. On the same count and under the same terms, the result for `C[C@H](O)c1nccn1Cc1cc(-c2ccc(C#Cc3ccc(CN4CC(C#N)C4)nc3)cc2)on1` [Example 119, (S)-1-((5-((4-(3-((2-(1-hydroxyethyl)-1H-imidazol-1-yl)methyl)isoxazol-5-yl)phenyl)ethynyl)pyridin-2-yl)methyl)azetidin-3-carbonitrile] reads 7.42 nM; that for `C[C@H](O)c1nccn1Cc1cc(-c2ccc(C#Cc3ccc(C#N)nc3)cc2)on1` [Example 120, (S)-5-((4-(3-((2-(1-hydroxyethyl)-1H-imidazol-1-yl)methyl)isoxazol-5-yl)phenyl)ethynyl)picolinonitrile], 77.1 nM. The same measure, in the same setting: with `C[C@H](O)c1nccn1Cc1cc(-c2ccc(C#Cc3ccc(CN4CC(O)C4)nc3)cc2)on1` [Example 121, (S)-1-((5-((4-(3-((2-(1-hydroxyethyl)-1H-imidazol-1-yl)methyl)isoxazol-5-yl)phenyl)ethynyl)pyridin-2-yl)methyl)azetidin-3-ol] the figure was 22.3 nM.

For `C[C@H](O)c1nccn1Cc1cc(-c2ccc(C#Cc3ccc(CN4CC(CC(N)=O)C4)nc3)cc2)on1` [Example 122, (S)-2-(1-((5-((4-(3-((2-(1-hydroxyethyl)-1H-imidazol-1-yl)methyl)isoxazol-5-yl)phenyl)ethynyl)pyridin-2-yl)methyl)azetidin-3-yl)acetamide], the half-maximal inhibitory concentration (IC50) is 6.71 nM. With `C[C@H](O)c1nccn1Cc1cc(-c2ccc(C#Cc3ccc(CN4CC(C(N)=O)C4)nc3)cc2)on1` [Example 123, (S)-1-((5-((4-(3-((2-(1-hydroxyethyl)-1H-imidazol-1-yl)methyl)isoxazol-5-yl)phenyl)ethynyl)pyridin-2-yl)methyl)azetidin-3-carboxamide], the IC50 came out at 8.22 nM.

A further assay concerns E. coli ATCC 25922. The assay is described as follows: Antibacterial activity, MIC by broth microdilution (CLSI). The following applies: Escherichia coli, ATCC25922; E. coli ATCC 25922, 35° C., 18 to 24 hours; read-out: MIC(E. coli). In kind it is cell-based. As for the experimental part: The in vitro minimum inhibitory concentration (MIC) was determined in accordance with the CLSI guidelines, and was measured using the broth microdilution method.
The experimental process is briefly described as follows: The test compound was dissolved in DMSO to prepare a […] stock solution, which was then prepared into 11 twice-diluted 100× high-concentration working solutions (the final concentration of the system was 64 μg/mL-0.06 μg/mL) using DMSO. The strains (K. pneumoniae ATCC13883 and E. coli ATCC 25922) frozen in −80° C. glycerol were inoculated into solid agar medium, placed in an incubator at 35° C. for 18-24 hours of incubation. After the preparation of strains was completed, an appropriate amount of solid plate culture was collected, resuspended in physiological saline, and mixed well. The bacterial suspension was adjusted to a suitable turbidity using a turbidity meter, containing approximately 1×10^8 cfu/mL bacteria. Then the bacterial suspension with the adjusted turbidity was diluted to a bacterial concentration of 5×10^5 cfu/ml using the culture medium for measurement, to complete the preparation of the inoculum solution. 198 μL of the inoculum solution was inoculated into a 96-well plate, and then added with 2 μL of a 100× high-concentration working solution of the compound. Then the 96-well plate was placed at 35° C. for 18 to 24 hours of incubation.
(In general: Dilution methods test growth across graded concentrations, often in twofold steps.)
As for `C[C@H](O)c1nccn1Cc1cc(-c2ccc(C#Cc3ccc(N4CCOCC4)cc3)cc2)on1` [Example 5], the MIC is 1 µg/mL (≈ 2.2 µM). `C[C@H](O)c1nccn1Cc1cc(-c2ccc(C#Cc3ccc(CN4CCOCC4C(=O)O)cc3)cc2)on1` (stereo partly drawn) [Example 20, 4-(4-((4-(3-((2-((S)-1-hydroxyethyl)-1H-imidazol-1-yl)methyl)isoxazol-5-yl)phenyl)ethynyl)benzyl)morpholin-3-carboxylic acid]: the minimal inhibitory concentration (MIC) came to 4 µg/mL (≈ 7.8 µM).
